# Reference: patent US20230374038A1, “MODULATORS OF CYSTIC FIBROSIS TRANSMEMBRANE CONDUCTANCE REGULATOR” (VERTEX PHARMACEUTICALS INCORPORATED, priority 2020, published 2023)
# Target: T1, CFTR (Homo sapiens, UniProt P13569, DEL508-508)
# T1 construct: endogenous in cells; host or cells: primary human bronchial epithelial cells, F508del/MF genotype
# Experiment: HBE Assay: Ussing chamber assay of CFTR-mediated short-circuit currents in F508del/MF-HBE cells with 1 μM Ivacaftor
# Format: cell-based
# Conditions: range of concentrations with 1 μM Ivacaftor, 18-24 hours, 20% human serum
# Method: Ussing chamber experiments were performed using human bronchial epithelial (HBE) cells derived from CF subjects heterozygous for F508del and a minimal function CFTR mutation (F508del/MF-HBE) and cultured as previously described (Neuberger T, Burton B, Clark H, Van Goor F Methods Mol Biol 2011:741:39-54). After four days the apical media was removed, and the cells were grown at an air liquid interface for >14 days prior to use.
# (§1) To isolate the CFTR-mediated short-circuit (ISC) current, F508del/MF-HBE grown on Costar® Snapwell™ cell culture inserts were mounted in an Ussing chamber and the transepithelial ISC was measured under voltage-clamp recording conditions (Vhold=0 mV) at 37° C. The basolateral solution contained (in mM) 145 NaCl, 0.83 K2HIPO4, 3.3 KH2PO4, 1.2 MgCl2, 1.2 CaCl2), 10 Glucose, 10 HEPES (pH adjusted to 7.4 with NaOH) and the apical solution contained (in mM) 145 NaGluconate, 1.2 MgCl2, 1.2 CaCl2), 10 glucose, 10 HEPES (pH adjusted to 7.4 with NaOH) and 30 μM amiloride to block the epithelial sodium channel. Forskolin (20 μM) was added to the apical surface to activate CFTR, followed by apical addition of a CFTR inhibitor cocktail consisting of BPO, GlyH-101, and CFTR inhibitor 172 (each at 20 μM final assay concentration) to specifically isolate CFTR currents. The CFTR-mediated ISC (μA/cm^2) for each condition was determined from the peak forskolin response to the steady-state current following inhibition.
# The activity of the CFTR corrector compounds on the CFTR-mediated ISC was determined in Ussing chamber studies as described above. The F508del/MF-HBE cell cultures were either incubated with the corrector compounds at a range of concentrations in combination with 1 μM Ivacaftor or were incubated with the corrector compounds at a single fixed concentration of 10 μM in combination with 1 μM Ivacaftor for 18-24 hours at 37° C. and in the presence of 20% human serum. The concentration of corrector compounds with 1 μM Ivacaftor during the 18-24 hours incubations was kept constant throughout the Ussing chamber measurement of the CFTR-mediated ISC to ensure compounds were present throughout the entire experiment.
# as §1, with “K2HPO4,” for “K2HIPO4,”
# T1 sequence (P13569 with tags, fused parts or gaps DEL508-508): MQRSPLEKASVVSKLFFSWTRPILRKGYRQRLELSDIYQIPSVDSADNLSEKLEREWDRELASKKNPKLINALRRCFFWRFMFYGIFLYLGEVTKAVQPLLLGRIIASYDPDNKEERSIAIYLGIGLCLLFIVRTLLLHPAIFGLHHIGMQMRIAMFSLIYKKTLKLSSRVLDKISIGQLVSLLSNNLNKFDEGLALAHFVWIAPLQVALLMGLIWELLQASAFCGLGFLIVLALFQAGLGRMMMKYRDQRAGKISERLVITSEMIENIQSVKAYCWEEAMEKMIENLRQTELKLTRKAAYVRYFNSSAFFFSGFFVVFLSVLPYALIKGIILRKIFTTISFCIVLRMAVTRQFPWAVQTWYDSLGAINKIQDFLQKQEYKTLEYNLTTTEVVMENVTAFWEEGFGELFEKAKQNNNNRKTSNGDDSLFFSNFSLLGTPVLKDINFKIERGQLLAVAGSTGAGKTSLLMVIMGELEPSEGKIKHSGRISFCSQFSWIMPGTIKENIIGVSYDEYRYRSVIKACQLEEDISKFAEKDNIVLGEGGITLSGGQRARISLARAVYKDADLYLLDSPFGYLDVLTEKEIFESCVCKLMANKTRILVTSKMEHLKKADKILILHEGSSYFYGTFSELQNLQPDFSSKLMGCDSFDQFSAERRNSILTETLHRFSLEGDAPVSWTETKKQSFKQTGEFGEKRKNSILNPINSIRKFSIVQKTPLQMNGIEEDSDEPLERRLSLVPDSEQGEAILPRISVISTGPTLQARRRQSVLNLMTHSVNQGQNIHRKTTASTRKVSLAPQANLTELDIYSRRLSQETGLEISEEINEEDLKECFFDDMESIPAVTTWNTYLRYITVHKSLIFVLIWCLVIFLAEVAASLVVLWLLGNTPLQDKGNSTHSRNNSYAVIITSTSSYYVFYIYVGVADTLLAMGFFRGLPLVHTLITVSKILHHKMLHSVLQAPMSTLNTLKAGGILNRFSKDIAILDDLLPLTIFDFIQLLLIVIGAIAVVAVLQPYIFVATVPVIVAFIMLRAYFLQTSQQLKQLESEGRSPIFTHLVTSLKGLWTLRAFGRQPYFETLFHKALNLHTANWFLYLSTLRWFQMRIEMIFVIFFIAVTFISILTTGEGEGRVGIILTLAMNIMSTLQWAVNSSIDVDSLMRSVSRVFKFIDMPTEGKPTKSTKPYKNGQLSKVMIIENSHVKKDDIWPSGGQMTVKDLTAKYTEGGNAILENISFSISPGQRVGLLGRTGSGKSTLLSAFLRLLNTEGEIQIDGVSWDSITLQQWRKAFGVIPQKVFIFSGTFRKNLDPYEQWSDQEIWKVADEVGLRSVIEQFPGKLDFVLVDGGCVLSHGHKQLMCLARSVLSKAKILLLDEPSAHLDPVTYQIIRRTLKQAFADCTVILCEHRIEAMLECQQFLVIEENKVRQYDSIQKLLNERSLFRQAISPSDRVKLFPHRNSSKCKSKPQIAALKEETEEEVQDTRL
row,EC50 [nM],Compound
1,1000 to 3000,Cc1cccc(C)c1-c1nc2nc(c1F)OC[C@@H](CC1CC1)N(Cc1ncc(OC(C)C)cn1)C(=O)c1cccc(c1)S(=O)(=O)N2 [Compound 343]
2,< 1000,"Cc1cccc(OC(C)C)c1-c1nc2nc(c1C)OC[C@@H](CC(C)(C)C)N(Cc1cncc(N(C)CC(C)(C)C)n1)C(=O)c1cccc(c1)S(=O)(=O)N2 (atropisomer, axis not shown) [Compound 332]"
3,< 1000,COc1c2nc(nc1-c1c(C)cccc1C)NS(=O)(=O)c1cccc(c1)C(=O)N(Cc1ncc(OC(C)C)cn1)[C@H](CC(C)C)CO2 [Compound 348]
4,< 1000,Cc1cccc(C)c1-c1nc2nc(c1C)OC[C@@H](CC(C)(C)C)N(Cc1cnc(C3CCOCC3)cn1)C(=O)c1cccc(c1)S(=O)(=O)N2 [Compound 331]
5,1000 to 3000,Cc1cccc(C)c1-c1nc2nc(c1F)OC[C@@H](CC1CC1)N(Cc1ncc(OC3CCC3)cn1)C(=O)c1cccc(c1)S(=O)(=O)N2 [Compound 344]

# Same assay, conditions: single fixed concentration of 10 μM with 1 μM Ivacaftor, 18-24 hours, 20% human serum
row,HBE Activity at 10 μM (%),Compound
1,+++ (+++ is >60%),Cc1cccc(C)c1-c1nc2nc(c1F)OC[C@@H](CC1CCC1)N(Cc1ncc(OC(C)C)cn1)C(=O)c1cccc(c1)S(=O)(=O)N2 [Compound 354]

# Same assay, conditions: single fixed concentration of 10 μM, with 1 μM Ivacaftor, 20% human serum
row,HBE Activity at 10 μM,Compound
1,+++ (+++ is >600%),"Cc1cccc(CC2CCCC2)c1-c1nc2nc(c1C)OC[C@@H](CC(C)(C)C)NC(=O)c1cccc(c1)S(=O)(=O)N2 (atropisomer, axis not shown) [Compound 224]"
2,+++ (+++ is >600%),"Cc1cccc(CC(C)C)c1-c1nc2nc(c1C)OC[C@@H](CC(C)(C)C)NC(=O)c1cccc(c1)S(=O)(=O)N2 (atropisomer, axis not shown) [Compound 227]"
3,+++ (+++ is >600%),"Cc1cccc(CC2CCCC2)c1-c1nc2nc(c1C)OC[C@@H](CC(C)(C)C)N(Cc1nccc(N(C)C(C)C)n1)C(=O)c1cccc(c1)S(=O)(=O)N2 (atropisomer, axis not shown) [Compound 265]"
4,++ (++ is 30-60%),"Cc1cccc(CC2CCOCC2)c1-c1nc2nc(c1C)OC[C@@H](CC(C)(C)C)N(Cc1ncc(N3CCC(C)(C)C3)cn1)C(=O)c1cccc(c1)S(=O)(=O)N2 (atropisomer, axis not shown) [Compound 272]"
5,+++ (+++ is >600%),"Cc1cccc(C(C)C)c1-c1nc2nc(c1C)OC[C@@H](CC(C)(C)C)N(Cc1cnc(C3CCOCC3)cn1)C(=O)c1cccc(c1)S(=O)(=O)N2 (atropisomer, axis not shown) [Compound 319]"

# Same assay, conditions: with 1 μM Ivacaftor, 18-24 hours, 20% human serum
EC50 [nM],HBE Max Activity,Compound
< 1000,+++ (+++ is >600%),"Cc1cccc(CC2CCCCC2)c1-c1nc2nc(c1C)OC[C@@H](CC(C)(C)C)N(Cc1ncc(N(C)C)cn1)C(=O)c1cccc(c1)S(=O)(=O)N2 (atropisomer, axis not shown) [Compound 304]"
< 1000,+++ (+++ is >600%),"Cc1cccc(CC2CCCC2)c1-c1nc2nc(c1C)OC[C@@H](CC(C)(C)C)N(Cc1ncc(N3CCOCC3)cn1)C(=O)c1cccc(c1)S(=O)(=O)N2 (atropisomer, axis not shown) [Compound 281]"
< 1000,+++ (+++ is >600%),"Cc1cccc(CC2CCCC2)c1-c1nc2nc(c1C)OC[C@@H](CC(C)(C)C)N(Cc1ncc(N3CCOCC3)cn1)C(=O)c1cccc(c1)S(=O)(=O)N2 (atropisomer, axis not shown) [Compound 280]"
< 1000,+++ (+++ is >600%),"Cc1cccc(CC(C)C)c1-c1nc2nc(c1C)OC[C@@H](CC(C)(C)C)N(Cc1ccc(N3CCOCC3)cn1)C(=O)c1cccc(c1)S(=O)(=O)N2 (atropisomer, axis not shown) [Compound 298]"
< 1000,+++ (+++ is >600%),Cc1cccc(CC2CCCCC2)c1-c1nc2nc(c1C)OC[C@@H](CC(C)(C)C)N(Cc1nccc(C(C)C)n1)C(=O)c1cccc(c1)S(=O)(=O)N2 [Compound 250]
< 1000,+++ (+++ is >600%),"Cc1cccc(CC(C)C)c1-c1nc2nc(c1C)OC[C@@H](CC(C)(C)C)N(Cc1cncc(N(C)C(C)C)n1)C(=O)c1cccc(c1)S(=O)(=O)N2 (atropisomer, axis not shown) [Compound 238]"
1000 to 3000,+++ (+++ is >600%),"Cc1cccc(CC2CCCCC2)c1-c1nc2nc(c1C)OC[C@@H](CC(C)(C)C)N(Cc1ncc(N(C)CC(C)(C)C)cn1)C(=O)c1cccc(c1)S(=O)(=O)N2 (atropisomer, axis not shown) [Compound 282]"
< 1000,+++ (+++ is >600%),"Cc1cccc(CC2CCCC2)c1-c1nc2nc(c1C)OC[C@@H](CC(C)(C)C)N(Cc1cccc(N(C)C(C)C)n1)C(=O)c1cccc(c1)S(=O)(=O)N2 (atropisomer, axis not shown) [Compound 273]"
< 1000,+++ (+++ is >600%),Cc1cccc(CC2CCCCC2)c1-c1nc2nc(c1C)OC[C@@H](CC(C)(C)C)N(Cc1ncc(C3CCOCC3)cn1)C(=O)c1cccc(c1)S(=O)(=O)N2 [Compound 251]
< 1000,+++ (+++ is >600%),"Cc1cccc(CC2CCCCC2)c1-c1nc2nc(c1C)OC[C@@H](CC(C)(C)C)N(Cc1ncc(N3CCOCC3)cn1)C(=O)c1cccc(c1)S(=O)(=O)N2 (atropisomer, axis not shown) [Compound 305]"
< 1000,+++ (+++ is >600%),Cc1cccc(CC2CCCCC2)c1-c1nc2nc(c1C)OC[C@@H](CC(C)(C)C)N(Cc1ccc(C3CCOCC3)cn1)C(=O)c1cccc(c1)S(=O)(=O)N2 [Compound 257]
< 1000,+++ (+++ is >600%),"Cc1cccc(CC(C)C)c1-c1nc2nc(c1C)OC[C@@H](C)N(Cc1ncc(N3CCC(C)(C)C3)cn1)C(=O)c1cccc(c1)S(=O)(=O)N2 (atropisomer, axis not shown) [Compound 242]"
< 1000,+++ (+++ is >600%),"Cc1cccc(CC(C)C)c1-c1nc2nc(c1C)OC[C@@H](CC(C)(C)C)N(Cc1ncc(OC(C)C)cn1)C(=O)c1cccc(c1)S(=O)(=O)N2 (atropisomer, axis not shown) [Compound 233]"
< 1000,+++ (+++ is >600%),"Cc1cccc(C2CC2)c1-c1nc2nc(c1C)OC[C@@H](CC(C)(C)C)N(Cc1cnc(C3CCOCC3)cn1)C(=O)c1cccc(c1)S(=O)(=O)N2 (atropisomer, axis not shown) [Compound 320]"
< 1000,+++ (+++ is >600%),Cc1cccc(C)c1-c1nc2nc(c1C)OC[C@@H](C(C)C)N(Cc1cncc(N(C)CC(C)(C)C)n1)C(=O)c1cccc(c1)S(=O)(=O)N2 [Compound 195]
1000 to 3000,+++ (+++ is >600%),"Cc1cccc(CC(C)C)c1-c1nc2nc(c1C)OC[C@@H](CC(C)(C)C)N(Cc1ncc(N3CCC(C)(C)C3)cn1)C(=O)c1cccc(c1)S(=O)(=O)N2 (atropisomer, axis not shown) [Compound 243]"
< 1000,+++ (+++ is >600%),"Cc1cccc(CC2CCOCC2)c1-c1nc2nc(c1C)OC[C@@H](CC(C)(C)C)N(Cc1ncc(N3CCOCC3)cn1)C(=O)c1cccc(c1)S(=O)(=O)N2 (single isomer, unassigned) [Compound 218]"
< 1000,+++ (+++ is >600%),"Cc1cccc(CC(C)C)c1-c1nc2nc(c1C)OC[C@@H](CC(C)C)N(Cc1cccc(N3CCC[C@H]3C)n1)C(=O)c1cccc(c1)S(=O)(=O)N2 (atropisomer, axis not shown) [Compound 237]"

# Same assay, conditions: with 1 μM Ivacaftor, 18-24 hours, 20% human serum, compared to known Vertex corrector with 18 μM Tezacaftor and 1 μM Ivacaftor, read-out: HBE Max activity (%)
row,Emax [%],Compound
1,> 60,Cc1cccc(C)c1-c1nc2nc(c1F)OC[C@@H](CC1CC1)N(Cc1ncc(OC(C)C)cn1)C(=O)c1cccc(c1)S(=O)(=O)N2 [Compound 343]
2,> 60,"Cc1cccc(OC(C)C)c1-c1nc2nc(c1C)OC[C@@H](CC(C)(C)C)N(Cc1cncc(N(C)CC(C)(C)C)n1)C(=O)c1cccc(c1)S(=O)(=O)N2 (atropisomer, axis not shown) [Compound 332]"
3,> 60,COc1c2nc(nc1-c1c(C)cccc1C)NS(=O)(=O)c1cccc(c1)C(=O)N(Cc1ncc(OC(C)C)cn1)[C@H](CC(C)C)CO2 [Compound 348]
4,> 60,Cc1cccc(C)c1-c1nc2nc(c1C)OC[C@@H](CC(C)(C)C)N(Cc1cnc(C3CCOCC3)cn1)C(=O)c1cccc(c1)S(=O)(=O)N2 [Compound 331]
5,> 60,Cc1cccc(C)c1-c1nc2nc(c1F)OC[C@@H](CC1CC1)N(Cc1ncc(OC3CCC3)cn1)C(=O)c1cccc(c1)S(=O)(=O)N2 [Compound 344]
